In ChEMBL document CHEMBL1124966, “Cholecystokinin-A receptor ligands based on the kappa-opioid agonist tifluadom” (J Med Chem, 1990) one finds IC50 data, which are given here for 26 compounds.

For the first test, the target named is T1, Cholecystokinin receptor type A (Rattus norvegicus, UniProt P30551).
T1 sequence (P30551 whole entry): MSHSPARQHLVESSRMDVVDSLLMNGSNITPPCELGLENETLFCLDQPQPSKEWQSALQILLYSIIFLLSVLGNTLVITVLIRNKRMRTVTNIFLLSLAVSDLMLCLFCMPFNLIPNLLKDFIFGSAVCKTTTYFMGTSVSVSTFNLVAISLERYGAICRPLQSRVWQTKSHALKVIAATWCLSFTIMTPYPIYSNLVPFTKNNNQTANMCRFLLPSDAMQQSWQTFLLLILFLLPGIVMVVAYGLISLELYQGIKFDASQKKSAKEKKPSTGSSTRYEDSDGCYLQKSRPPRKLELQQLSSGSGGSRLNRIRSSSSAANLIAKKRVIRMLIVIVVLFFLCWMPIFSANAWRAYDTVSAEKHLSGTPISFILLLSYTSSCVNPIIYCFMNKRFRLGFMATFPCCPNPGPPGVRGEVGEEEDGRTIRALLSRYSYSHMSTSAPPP
As to the kind of experiment: Inhibition of binding of [125I]CCK-8 to Cholecystokinin type A receptor in rat pancreas.
On to `O=C(NCC1CNc2ccccc2C(c2ccccc2F)=N1)C(O)c1ccccc1` (single isomer, unassigned; form 2), for which the IC50 (in general, the midpoint of a concentration-inhibition curve) was greater than 100 µM.

Turning to `O=C(NCC1N=C(c2ccccc2F)c2ccccc2NC1=O)c1cc2ccccc2[nH]1` (centres undefined), the IC50 came to 7 µM.

For `COC(=O)CC(NCC1CN=C(c2ccccc2F)c2ccccc2N1C)c1ccccc1` (centres undefined), the IC50 stood at 0.018 µM.

Compound `O=C(NCC1CNc2ccccc2C(c2ccccc2F)=N1)c1cc2ccccc2[nH]1` (centres undefined) gave a concentration for half-maximal inhibition (IC50) of 4 µM.

In the case of `O=C1Nc2ccccc2C(c2ccccc2F)=NC1CNc1cnc(Cl)cn1` (centres undefined), the IC50 amounted to 15 µM.

`O=C(NCC1CNc2ccccc2C(c2ccccc2F)=N1)c1ccsc1` (centres undefined) came in with an IC50 of 10 µM.

`CCN(CC)CNCC1CN=C(c2ccccc2F)c2ccccc2N1C` (centres undefined) displayed an IC50 greater than 100 µM.

`NCC1N=C(c2ccccc2F)c2ccccc2NC1=O` (centres undefined) registered a 50% inhibitory concentration (IC50) greater than 100 µM.

For `O=C(NCC1N=C(c2ccccc2F)c2ccccc2NC1=O)OCc1ccccc1` (centres undefined), the IC50 turned out to be 22 µM.

For `O=C(NCC1CNc2ccccc2C(c2ccccc2F)=N1)C(O)c1ccccc1` (single isomer, unassigned; form 1), the IC50 came out at 8 µM.

`Cc1ccc(C(=O)NC[C@@H]2CN=C(c3ccc(F)cc3)c3ccc(C)cc3N2C)cc1` yielded an IC50 of 0.029 µM.

Compound `CN1c2ccccc2C(c2ccccc2F)=NCC1CNC(=O)c1ccsc1` (racemic) [TIFLUADOM] came in with an IC50 of 0.047 µM.

`O=C(NCC1N=C(c2ccccc2F)c2ccccc2NC1=O)c1ccsc1` (centres undefined) came in with an IC50 of 22 µM.

As to `CCN(CC)c1ccc(NCC2CN=C(c3ccccc3F)c3ccccc3N2C)cc1C(F)(F)F` (centres undefined), the half-inhibitory concentration (IC50) was 100 µM.

In turn, `CN1c2ccccc2C(c2ccccc2F)=NCC1CNC(=O)C(O)c1ccccc1` (centres undefined) displayed an IC50 of 0.6 µM.

With `O=C(NCC1CNc2ccccc2C(c2ccccc2F)=N1)OCc1ccccc1` (centres undefined), the IC50 turned out to be 28 µM.

Turning to `O=C1Nc2ccccc2C(c2ccccc2F)=NC1CNCC1N=C(c2ccccc2F)c2ccccc2NC1=O` (centres undefined), the IC50 stood at 14 µM.

In turn, `Cc1ccc(C(=O)NC[C@H]2CN=C(c3ccc(F)cc3)c3ccc(C)cc3N2C)cc1` returned an IC50 of 0.26 µM.

The next test deals with Opioid receptor (Rattus norvegicus, UniProt P33533+P34975+P33535). As to the kind of experiment: Displacement of [3H]dihydromorphine (DHM) from rat brain Opioid receptors.
In the case of `CN1c2ccccc2C(c2ccccc2F)NCC1CNC(=O)c1ccsc1` (centres undefined), the concentration for half-maximal inhibition (IC50) came out at 0.03 µM.

For `CN1c2ccccc2C(c2ccccc2F)=NCC1CNC(=O)Cc1c[nH]c2ccccc12` (centres undefined), the IC50 came out at 0.022 µM.

For `COC(=O)CC(NCC1CN=C(c2ccccc2F)c2ccccc2N1C)c1ccccc1` (centres undefined), the IC50 worked out at 0.018 µM.

`CN1c2ccccc2C(c2ccccc2F)=NCC1CNC(=O)C(N)Cc1c[nH]c2ccccc12` (centres undefined) came in with an IC50 of 0.04 µM.

With `CN1c2ccccc2C(c2ccccc2F)=NCC1CNC(=O)c1cccnc1` (centres undefined), the IC50 stood at 0.45 µM.

`O=C(NCC1N=C(c2ccccc2F)c2ccccc2NC1=O)OCc1ccccc1` (centres undefined) displayed an IC50 of 12 µM.

For the compound `CN1c2ccccc2C(c2ccccc2F)=NCC1CNC(=O)c1cc2ccccc2[nH]1` (centres undefined), the IC50 came to 0.0003 µM.

On to `CN1c2ccccc2C(c2ccccc2F)=NCC1CNC(=O)c1ccc(Cl)cc1` (centres undefined), for which the IC50 was 0.0005 µM.

`CC(=O)NCSCC(=O)NCC1CN=C(c2ccccc2F)c2ccccc2N1C` (centres undefined) yielded a half-inhibitory concentration (IC50) of 0.12 µM.

Regarding `CN1c2ccccc2C(c2ccccc2F)=NCC1CNC(=O)C(O)c1ccccc1` (centres undefined), the IC50 was 0.007 µM.

Compound `CN1c2ccccc2C(c2ccccc2F)=NCC1CNC(=O)Cc1cccc2sccc12` (centres undefined) yielded an IC50 of 0.003 µM.
